Test system: human cell lines: breast MCF7 and HTB26, colon WIDR and HTB38, lung HTB53, melanoma HTB66, and uterus HTB114
Test: Clonogenic assay with human cell lines (test 2)
Assay type: cell-based
Conditions: treatment approximately three times the cell cycle, more particularly the D-enantiomers, read-out: ID75 in the clonogenic assay (test 2)
Experimental: 2. CLONOGENIC ASSAY WITH HUMAN CELL LINES
The following human cell lines are used: breast MCF7 and HTB26, colon WIDR and HTB38, lung HTB53, melanoma HTB66, and uterus HTB114.
As comparative substances are used cisplatinum, 5-fluorouracil, daunomycine, bleomycine and adriamycine.
During providing the cells or after a pre-incubationperiod of one night, the compound to be tested is added as a solution or suspension in 0.5% CMC/saline solution in a dose range with a maximum concentration of 15 μg/ml.
The duration of the treatment is approximately three times the cell cycle. The cells are then fixed, coloured and evaluated for the presence of the colonies. The formation of colonies is expressed in the number of colonies which is present on the treated dishes as a perecentage of the number of colonies which is present on control dishes.

| SMILES | IC75 [µg/mL] |
| --- | --- |
| COc1cc([C@@H]2c3cc4c(cc3C[C@@H]3COC(=O)N32)OCCO4)cc(OC)c1OC [Example 79] | < 1 |
| COc1cc([C@H]2c3ccc4ccccc4c3C[C@H]3COC(=O)N32)cc(OC)c1OC (relative stereo) [Example 81] | < 1 |
| COc1cc([C@H]2N[C@@H](C(N)=O)Cc3cc4c(cc32)OCCO4)cc(OC)c1OC [Example 110] | < 1 |
| COc1cc([C@@H]2c3cc4c(cc3C[C@@H]3COS(=O)N32)OCO4)cc(OC)c1OC (stereo partly drawn) [Example 55] | < 1 |
| COc1cc([C@@H]2c3cc4c(cc3C[C@@H]3CN(C)[S+]([O-])N32)OCO4)cc(OC)c1OC (stereo partly drawn) [Example 70] | < 1 |
| COc1cc([C@H]2c3c(ccc4ccccc34)C[C@H]3COC(=O)N32)cc(OC)c1OC (relative stereo) [Example 82] | < 1 |
| COc1cc([C@H]2N[C@@H](CO)Cc3c2ccc2ccccc32)cc(OC)c1OC (relative stereo) [Example 23] | < 1 |
| COc1cc(OC)c([C@H]2c3cc4c(cc3C[C@H]3COC(=O)N32)OCCO4)cc1OC [Example 80] | < 1 |
| COc1cc([C@H]2N[C@@H](CO)Cc3cc4c(cc32)OCCO4)cc(OC)c1OC [Example 20] | < 1 |
